A short description of data set [1]: Antioxidant activity by the DPPH method. It counts as biochemical. From the text: The antioxidant activity of the compound 3,5-dicaffeoyl-4-malonylquinic acid compared to known molecules such as ascorbic acid and rutin, has been determined by means of the DPPH method, according to the instructions reported in J. Buenger et al.; International Journal of Cosmetic Science, 2006, 28: 135-146.

Data set [2] concerns mouse B16F1 melanoma cells. The data set can be described thus: Inhibition of MSH-stimulated melanin production (depigmenting activity). Format: cell-based. As to conditions: 1 mg/mL, 100 nM MSH, 24 hours; for % inhibition vs AK: relative to kojic acid. As for the experimental part:
The bleaching activity of the compound obtained by cell culture of Centella asiatica has been determined by evaluating the inhibition of melanin production, stimulated by the addition of MSH (melanocyte stimulating hormone) in mouse B16F1 melanoma cells. The test has been prepared by seeding mouse B16F1 melanoma cells in DMEM culture medium + 10% FBS in 25 cm^2 flasks. On reaching 80% confluency, the culture medium has been replaced with conditioned medium (containing 100 nM MSH and the test compounds). The cells in the conditioned medium have been incubated for 24 hours at 37°C and 5% CO2. On termination of incubation, the cells have been washed twice with PBS and then detached using a Trypsin-EDTA solution. After washing twice with PBS, the detached cells have been resuspended in the same solution. A small aliquot has been removed from the suspension for the purpose of conducting the MTT cell viability test, while the remainder has been used to extract the cell melanin content. The melanin content has been determined by spectrophotometric measurements at 405 nm, and calculated by means of a calibration curve obtained using a melanin standard. The optical density value obtained has been normalised for the number of viable cells obtained by means of the MTT test. The percentage inhibition of melanin production has been calculated from the percentage ratio between the value obtained from the cells treated with the extracts, and the value obtained from the control cells, treated with MSH alone. The results obtained from testing the compound at a concentration of 1 mg/ml compared to kojic acid at the same concentration, are reported in table 8 below: TABLE 8

The subject of data set [3] is Malassezia furfur DSMZ4167. The data set can be described thus: Multiple dilution antimicrobial assay, CFU count in culture-broth. Format: cell-based. The settings on record: for T7d: sample at 7 days, 30°C. As for the experimental part:
(§1) With the aim of identifying any potential antimicrobial activity in the compound 3,5-dicaffeoyl-4-malonylquinic acid, microbiological assays, generally known as multiple dilution assays, have been prepared. The results obtained from said assays have shown the antimicrobial activity of the compound against the following strains: • Staphylococcus aureus ATCC6538 • Malassezia furfur DSMZ4167
(§2) The compound has been tested at concentrations of 5 mg/ml, 2 mg/ml and 1 mg/ml.
(§3) The microbial strains used for testing have been inoculated into culture-broth (in Tryptone soy broth medium, for Malassezia furfur the culture medium has been supplemented with 2 ml/100 ml of olive oil) containing the test compound at the concentrations described above. In parallel with these tests, culture broths containing the microbial strain alone have been prepared (controls). The culture-broths have been incubated at 30°C for a period of 7 days. Samples of the various culture-broths have been taken at 0 and 7 days, with the aim of counting the number of CFU/ml in relation to the various microbial strains, by plating the cultures on solid medium. A certain number of serial dilutions have been prepared for each sample in order to determine the microbial load of each culture-broth. Each dilution has been assayed in triplicate on solid medium. Then number of CFUs reported in the table is the mean of the counts performed on the triplicate assays. Table 4: the effect of 3,5-dicaffeoyl-4-malonylquinic acid on the growth of Staphylococcus aureus ATCC 6538

In data set [4] the test system is Staphylococcus aureus ATCC6538. Described as above. It counts as cell-based. As to the method:
as §1, §2, §3

Data set [5] relates to DNBS induced colitis model. Put plainly: DNBS induced colitis model in rats (anti-inflammatory activity). Format: in vivo, Sprague-Dawley rats. As to conditions: four days after DNBS. From the text:
Evaluation of the anti- inflammatory activity of 3, 5-dicaffeoyl-4-malonylquinic acid has been determined on an in vivo induced colitis model. Colitis has been induced in rats using a colon inflammation model, stimulated by DNBS ([…] acid). After 4 days of induction of inflammation, the following parameters have been evaluated: determination of colon damage by means of morphological and histological analysis; determination of myeloperoxidase activity and determination of body weight. The animals used have been subdivided into four experimental groups (10 Sprague-Dawley rats weighing 200-250 g in each group) : • one control group, to which only carrier has been administered (CTR); • one group, to which DNBS plus carrier has been administered (DNBS); • one group, to which DNBS and 3,5-dicaffeoyl-4-malonylquinic acid has been administered: the compound has been administered orally at a concentration of 2 mg/kg for 4 consecutive days following the administration of DNBS; • one group, to which DNBS and 3,5-dicaffeoyl-4-malonylquinic acid has been administered: the compound has been administered orally at a concentration of 0.2 mg/kg for 4 consecutive days following the administration of DNBS.
Four days after the administration of DNBS, the following investigations have been conducted: • evaluation of colon damage by means of morphological and histological analysis (a score is assigned on the basis of the damage observed); • evaluation of myeloperoxidase activity and • determination of body weight.

In the next data set the test system is type-2 HSV virus. The data set can be described thus: Anti-HSV2 antiviral activity in Vero cell model (XTT read-out). It counts as cell-based, type-2 Herpes simplex virus (HSV) strain 333. The settings on record: at a concentration of 200 µg/ml; compared to positive control (infected, no test substance); MOI 0.1; 72 hours. As for the experimental part:
The antiviral activity of 3,5-dicaffeoyl-4-malonylquinic acid towards type-2 HSV virus has been assayed using a Vero cell model. The assay has been conducted using acyclovir as a comparator.
Vero cells have been seeded into 96 well plates at a concentration of 5x10^4 cells/well. After 4 hours incubation at 37°C in 5% CO2, the cells have been infected with strain 333 of the type-2 Herpes simplex virus (HSV) at a multiplicity of infection (MOI) of 0.1 infective viral particles/cell. Various concentrations of 3,5-dicaffeoyl-4-malonylquinic acid (CA1) have been added in triplicate to the cell monolayers. Some wells have been infected in the absence of test compound (POSITIVE CONTROL), others have not been infected and have not been treated with the test compound (NEGATIVE CONTROL), others still have been treated with various concentrations of acyclovir (ACYC), representing the comparator substance. The infected cells have then been incubated in medium plus 2% FBS for 72 hours. On completion of said incubation period, the medium has been removed from each well by aspiration. Following washing in PBS and aspiration, 50 µl of a solution consisting of […] and 1 mg/ml XTT has been added to each well. […] The optical density has been measured using an ELISA plate reader set at a wavelength of 450 nm and 630 nm.

The nature of data set [6]: UV absorption (sun-screen activity), spectrophotometry 250-400 nm. It counts as physicochemical. The text has this:
This example reports the test to determine the UV absorption of the molecule 3,5-dicaffeoyl-4-malonylquinic acid compared to a commercially available molecule widely used as a sun screen (PARSOL MCX).
The compounds have been examined in an aqueous solution of: • 0.2 M phosphate buffer pH 5.0 • 0.1 M HCl solution at pH 1.0.
The pH 5.0 buffer has been selected as the condition used most frequently in the preparation of sun screens. The pH 1.0 solution has been examined in order to also observe the stability of the compounds at extreme pH values.
The analyses have been conducted using a Shimadzu model UV 1601 spectrophotometer, analysing the spectrum from 250 nm to 400 nm in order to ascertain the absorption of UVA and UVB.
The results report the absorption values at maximum wavelength (λ Max) and at 330 nm, this being the wavelength most frequently used for quantitative measurements for the products in question.
The values are expressed in: • specific extinction, corresponding to the extinction at the given λ for a solution at a concentration of 1.0 µg/mL. • Epsilon = the molar absorption, calculated using the formula Epsilon = A/C*L [formula] where A is the absorption value in mAU, C is the concentration of the solution in moles and L is the path length of the solutions in cm (always 1 cm).

Another data set concerns metalloproteinases (MMP). Put plainly: Metalloproteinase inhibition, 3D model with type-1 collagen gel and BALB 3T3 fibroblasts (hydroxyproline content). As to conditions: 48 hours; at higher concentrations collagen increases only through reduced cell number. It counts as cell-based. The text has this:
Metalloproteinase inhibitory activity has been evaluated by preparation of an in vitro assay known as the "3D model" envisaging the use of a type-1 collagen gel and BALB 3T3 fibroblast cells. In this assay model, fibroblasts acquire the property of secreting metalloproteinases (MMP), such as collagenase, gelatinase, elastase etc. through modulation by cytokines or other inflammatory mediators (Lim H., Kim HP, Planta Medica, 2007, 12:1267-1274). Balb 3T3 cells (4*10^6 cells/ms) are inoculated in a culture medium (DMEM + 10% FBS) containing a type 1 collagen 3D gel supplemented with increasing concentrations of the test compound. After incubation for 48 hours at 37°C in 5% CO2, the collagen content is measured by means of an indirect method (hydroxyproline content); in parallel, the effect of treatment on cell viability, or on the growth inhibitory effect, is also assessed. The result is expressed as the %age of hydroxyproline present in the 3D gel, compared to the control, or untreated, culture (NB: the collagen content in the absence of cells is reported as positive control). From the results obtained, it is evident that treatment with 3,5 dicaffeoyl-4-malonylquinic acid is effective up to a concentration of 400 µg/ml. For higher concentrations, the collagen content increases purely as a result of the reduced number of cells.

Setting [7] is: DNBS + 0.2 mg/kg orally for 4 consecutive days.
Where [8] appears, read: DNBS + 2 mg/kg orally for 4 consecutive days.
Where [9] appears, read: pH 1.0, second line, printed beside 326 nm (330 nm line empty).
[10] abbreviates: pH 5.0 (0.2 M phosphate buffer), λ Max line.
Where [11] appears, read: pH 5.0, second line, printed beside 325 nm (330 nm line empty).

These results are taken from patent EP2133323B1, “The production and use of 3,5-dicaffeoyl-4-malonylquinic acid” (I.R.B. Istituto Di Ricerche Biotecnologiche S.r.l., priority 2008, dated 2009).

Turning to `O=C1O[C@H]([C@@H](O)CO)C(O)=C1O` [Ascorbic acid, reference compound], the IC50 in data set [1] worked out at 1000 nM.

In turn, `O=c1cc(CO)occ1O` [Kojic acid, reference compound] yielded an inhibition at 1000 µg/mL in data set [2] (Mus musculus, B16-F1, melanin production) of 70%. Further, the “% inhibition vs AK” value in data set [2] turned out to be 100%.

Take `O=C(O)CC(=O)OC1C(OC(=O)/C=C/c2ccc(O)c(O)c2)CC(O)(C(=O)O)CC1OC(=O)/C=C/c1ccc(O)c(O)c1` (stereo not shown) [3,5-dicaffeoyl-4-malonylquinic acid]: the T7d in data set [3] (2 mg/ml) is reported as <100 CFU/ml; in data set [3] (5mg/ml) it was <100 CFU/ml; in data set [4] (5mg/ml, sample at 7 days, 30°C), <100 CFU/ml. For the same compound, the antimicrobial activity entry in data set [3] (at a concentration of 2 mg/ml) and in data set [4] (at a concentration of 5 mg/ml) was “exerts antimicrobial activity” in each case. The Histological score was found to be 1.60 in data set [5] (setting [7]) and 1.55 in data set [5] (setting [8]). Further, the Myeloperoxidase activity in data set [5] (setting [7]) is listed as 513.00 U/g fresh weight; in data set [5] (setting [8]), 486.90 U/g fresh weight. The “% inhibition” value in data set [2] (melanin production) turned out to be 33.8%. For the same compound, in data set [2], the “% inhibition vs AK” value came to 48%. Further, the antiviral activity entry with type-2 HSV virus is given as “good antiviral activity”. In addition, the Epsilon was 28.539 in data set [6] (pH 1.0 (0.1 M HCl), λ Max line); 28.138 in data set [6] (setting [9]); 30.602 in data set [6] (setting [10]); 29.972 in data set [6] (setting [11]). The “Spec. abs. (1 µg/ml)” value in data set [6] (pH 1.0 (0.1 M HCl), λ Max line) worked out at 47.9 mAU; in data set [6] (setting [9]), 47.2 mAU; in data set [6] (setting [10]) it was 51.3 mAU; in data set [6] (setting [11]), 50.3 mAU. Besides, in the data set with metalloproteinases (MMP), the “concentration up to which treatment is effective (collagen content, hydroxyproline)” value is ≤ 400 µg/mL. The same compound gave an IC50 in data set [1] of 3760 nM.
